Values after ≈ are worked out from the molar mass of the structure shown. Like-named read-outs stand apart in the source and are kept apart here.
Legend:
[1] = biological target: T1, E. coli DnaE (DNA polymerase III α-subunit from Escherichia coli) (Escherichia coli, UniProt P10443); assay: In vitro DnaE single enzyme assay (E. coli); assay type: biochemical
T1 construct: EcDnaE (E. coli DnaE residues 1-1160); 6xHis (N); made in house; host or cells: E. coli BL21(DE3)
Method in brief: (§1)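 His-tagged E. coli DnaE (residues 1-1160, 0.8 μg/ml) or S. aureus DnaE (residues 1-1065, 0.05 μg/ml) incubated 30 min at 30° C. with activated calf thymus DNA, 0.025 mM dATP/dGTP/dCTP and 0.011 mM 3H-dTTP in Tris pH 7.5/Mg acetate. TCA-precipitated labelled DNA counted.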

[2] = biological target: T2, S. aureus DnaE (DNA polymerase III α-subunit homolog from Staphylococcus aureus) (Staphylococcus aureus, UniProt Q5HF71); assay: biochemical; assay type: biochemical
T2 construct: SaDnaE (S. aureus DnaE residues 1-1065); 6xHis (N); made in house; host or cells: E. coli BL21-AI
T2 sequence (Q5HF71 1-1065): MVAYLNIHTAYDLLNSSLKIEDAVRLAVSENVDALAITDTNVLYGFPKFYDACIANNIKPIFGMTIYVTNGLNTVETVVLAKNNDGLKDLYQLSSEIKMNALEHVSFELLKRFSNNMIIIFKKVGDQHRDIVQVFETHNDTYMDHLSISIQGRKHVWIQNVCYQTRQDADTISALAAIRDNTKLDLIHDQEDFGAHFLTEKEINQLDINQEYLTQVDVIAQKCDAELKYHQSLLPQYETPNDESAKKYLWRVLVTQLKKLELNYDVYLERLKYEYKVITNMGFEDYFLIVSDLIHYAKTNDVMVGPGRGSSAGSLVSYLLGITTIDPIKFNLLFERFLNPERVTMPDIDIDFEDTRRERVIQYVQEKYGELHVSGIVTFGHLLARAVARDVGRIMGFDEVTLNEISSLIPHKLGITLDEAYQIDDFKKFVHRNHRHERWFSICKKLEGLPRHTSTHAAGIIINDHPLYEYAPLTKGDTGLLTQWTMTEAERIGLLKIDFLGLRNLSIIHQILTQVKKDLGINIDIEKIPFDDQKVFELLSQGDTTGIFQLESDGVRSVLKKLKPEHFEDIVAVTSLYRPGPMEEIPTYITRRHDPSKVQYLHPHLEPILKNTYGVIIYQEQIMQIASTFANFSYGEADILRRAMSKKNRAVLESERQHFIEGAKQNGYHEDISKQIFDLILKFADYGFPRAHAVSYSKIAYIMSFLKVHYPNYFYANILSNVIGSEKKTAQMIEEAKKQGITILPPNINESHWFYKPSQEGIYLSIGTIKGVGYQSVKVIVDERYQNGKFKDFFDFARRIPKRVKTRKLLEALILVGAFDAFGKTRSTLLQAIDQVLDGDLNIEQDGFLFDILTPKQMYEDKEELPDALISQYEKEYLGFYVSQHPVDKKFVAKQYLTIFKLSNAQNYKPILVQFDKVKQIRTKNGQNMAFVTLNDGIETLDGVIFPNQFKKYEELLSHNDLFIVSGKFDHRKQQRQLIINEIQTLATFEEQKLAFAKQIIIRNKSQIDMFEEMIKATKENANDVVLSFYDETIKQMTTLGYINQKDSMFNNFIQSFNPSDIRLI
Method in brief: as §1

[3] = system: Escherichia coli MB5747 (LS 883, tolC); assay: microbe, parasite or virus in culture; assay type: cell-based; conditions: Escherichia coli, read-out: E. coli LS883 tolC (MIC), MHII broth; * = some reduction of growth versus control at […]
[4] = system: Pseudomonas aeruginosa MB5890 (CB1101, efflux-deleted); assay: microbe, parasite or virus in culture; assay type: cell-based; conditions: Pseudomonas aeruginosa, read-out: P. aeruginosa MB5890 efflux-del (MIC), MHII broth; * = some reduction of growth versus control at […]
[5] = system: Staphylococcus aureus MB6266 (MRSA COL); assay: Nargenicin antibacterial assay (MIC), S. aureus; assay type: cell-based; conditions: Staphylococcus aureus, MRSA, read-out: S. aureus COL (MIC), MHII broth + 50% human serum; * = some reduction of growth versus control at […]
[6] = system: Streptococcus pneumoniae MB6357 (CL 2883); assay: Nargenicin antibacterial assay (MIC), S. pneumoniae; assay type: cell-based; conditions: Streptococcus pneumoniae, read-out: S. pneumoniae MB2883 (MIC), Isosensitest broth; * = some reduction of growth versus control at […]
[7] = read-out: E. coli DnaE IC50 (converted)

T1 sequence (P10443 whole entry, the tested form may be a part): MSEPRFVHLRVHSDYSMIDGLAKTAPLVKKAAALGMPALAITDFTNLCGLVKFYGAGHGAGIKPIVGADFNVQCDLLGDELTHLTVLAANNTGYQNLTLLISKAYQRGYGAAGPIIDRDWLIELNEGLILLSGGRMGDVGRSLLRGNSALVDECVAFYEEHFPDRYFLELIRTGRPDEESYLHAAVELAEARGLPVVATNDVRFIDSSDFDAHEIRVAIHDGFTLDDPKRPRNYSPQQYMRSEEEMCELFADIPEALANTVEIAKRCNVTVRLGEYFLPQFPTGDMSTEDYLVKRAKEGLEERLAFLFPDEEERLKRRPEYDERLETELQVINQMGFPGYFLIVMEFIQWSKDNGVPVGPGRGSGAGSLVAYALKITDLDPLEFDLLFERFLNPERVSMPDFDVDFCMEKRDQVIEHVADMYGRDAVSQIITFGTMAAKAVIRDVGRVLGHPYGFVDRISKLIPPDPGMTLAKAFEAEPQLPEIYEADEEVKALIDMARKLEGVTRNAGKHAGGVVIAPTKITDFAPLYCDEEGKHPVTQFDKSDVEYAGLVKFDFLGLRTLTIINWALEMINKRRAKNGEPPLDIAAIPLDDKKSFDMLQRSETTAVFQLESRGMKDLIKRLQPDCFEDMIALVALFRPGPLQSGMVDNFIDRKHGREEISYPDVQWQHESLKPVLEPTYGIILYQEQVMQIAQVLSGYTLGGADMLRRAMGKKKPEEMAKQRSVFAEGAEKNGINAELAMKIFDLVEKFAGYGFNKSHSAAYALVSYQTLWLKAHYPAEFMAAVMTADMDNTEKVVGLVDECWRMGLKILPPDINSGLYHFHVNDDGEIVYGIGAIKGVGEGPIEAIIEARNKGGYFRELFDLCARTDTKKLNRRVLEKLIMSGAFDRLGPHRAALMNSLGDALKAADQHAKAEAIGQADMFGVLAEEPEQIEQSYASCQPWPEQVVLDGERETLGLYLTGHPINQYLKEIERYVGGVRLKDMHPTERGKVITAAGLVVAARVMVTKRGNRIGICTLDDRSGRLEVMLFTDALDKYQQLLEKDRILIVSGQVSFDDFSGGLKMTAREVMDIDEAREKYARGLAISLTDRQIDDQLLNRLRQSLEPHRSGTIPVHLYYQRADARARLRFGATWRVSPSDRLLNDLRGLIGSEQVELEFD

Structure (SMILES) | IC50 [1, 7] [µM] | IC50 ([2]; S. aureus DnaE IC50) [µM] | MIC [3] [µg/mL] | MIC [4] [µg/mL] | MIC [5] [µg/mL] | MIC [6] [µg/mL] | IC50 ([1]; E. coli DnaE IC50) [µM] | IC50 ([2]; read-out: S. aureus DnaE IC50 (converted)) [µM]
CO[C@H]1CC2C=C[C@H]3[C@H]4O[C@]2(/C(C)=C/[C@@H](C)[C@@H](C(C)O)OC1=O)[C@@H]3[C@H](O)[C@@H](C)[C@H]4OC(=O)c1[nH]c(I)c(I)c1I (stereo partly drawn) [Example 42] | 44.8 | 4.48 | > 128 | > 128 | 32 | 1 (≈ 1.12 µM) | – | –
CO[C@H]1C[C@H]2C=C[C@H]3[C@H]4O[C@]2(/C(C)=C/[C@@H](C)[C@@H]([C@@H](C)OC(=O)NC2CC2)OC1=O)[C@@H]3[C@H](O)[C@@H](C)[C@H]4OC(=O)c1ccc[nH]1 [Example 6] | 75.2 | 0.0184 | 4 (≈ 6.68 µM) | > 128 | 8 | 128 (≈ 214 µM) | – | –
CO[C@H]1C[C@H]2C=C[C@H]3[C@H]4O[C@]2(/C(C)=C/[C@@H](C)[C@@H]([C@@H](C)OC(=O)OC(C)C)OC1=O)[C@@H]3[C@H](O)[C@@H](C)[C@H]4OC(=O)c1ccc[nH]1 [Example 33] | 58.2 | 0.0349 | > 64 | > 128 | 32 | 8 (≈ 13.3 µM) | – | –
CO[C@H]1CC2C=C[C@H]3[C@H]4O[C@]2(/C(C)=C/[C@@H](C)[C@@H](/C(C)=N\O)OC1=O)[C@@H]3[C@H](O)[C@@H](C)[C@H]4OC(=O)c1ccc[nH]1 (stereo partly drawn) [Example 180] | 11.4 | < 0.0114 | 4 (≈ 7.57 µM) | 64 (≈ 121 µM) | 4 | 32 (≈ 60.5 µM) | – | –
CO[C@H]1C[C@H]2C=C[C@H]3[C@H]4O[C@]2(/C(C)=C/[C@@H](C)[C@@H]([C@@H](C)OC(=O)NNC(N)=O)OC1=O)[C@@H]3[C@H](O)[C@@H](C)[C@H]4OC(=O)c1ccc[nH]1 [Example 23] | 48.6 | < 0.00973 | 4 (≈ 6.49 µM) | 64 (≈ 104 µM) | 8 | > 128 | – | –
CO[C@H]1CC2C=C[C@H]3[C@H]4O[C@]2(/C(C)=C/[C@@H](C)[C@@H]([C@@H](C)OC(=O)NN)OC1=O)[C@@H]3[C@H](O)[C@@H](C)[C@H]4OC(=O)c1ccc[nH]1 (stereo partly drawn) [Example 18] | 105 | < 0.0105 | 4 (≈ 6.97 µM) | > 128 | 8 | 128 (≈ 223 µM) | – | –
CO[C@H]1C[C@H]2C=C[C@H]3[C@H]4O[C@]2(/C(C)=C/[C@@H](C)[C@@H]([C@@H](C)O)OC1=O)[C@@H]3[C@H](O)[C@@H](C)[C@H]4OC(=O)c1ccc(Br)[nH]1 [Example 43] | 75.7 | 0.202 | 8 (≈ 13.5 µM) | > 128 | 64 | 128 (≈ 215 µM) | – | –
CC[C@@H]1OC(=O)[C@@H](OC)C[C@H]2C=C[C@H]3[C@H]4O[C@]2(/C(C)=C/[C@H]1C)[C@@H]3[C@H](O)[C@@H](C)[C@H]4OC(=O)c1ccc[nH]1 [Example 49] | > 200 | 0.56 | 64 (≈ 128 µM) | > 128 | > 128 | > 128 | – | –
CO[C@H]1C[C@H]2C=C[C@H]3[C@H]4O[C@]2(/C(C)=C/[C@@H](C)[C@@H]([C@@H](C)O)OC1=O)[C@@H]3C(=O)[C@@H](C)[C@H]4OC(=O)c1ccc[nH]1 [Example 146, (3R,4S,7S,8aS,10aR,11R,12R,13S,14aR,14bS,E)-4-((R)-1-hydroxyethyl)-7-methoxy-1,3,13-trimethyl-6,14-dioxo-3,4,6,7,8,8a,10a,11,12,13,14,14a-dodecahydro-11,14b-epoxynaphtho[2,1-e]oxecin-12-yl 1H-pyrrole-2-carboxylate] | > 195 | 1.17 | 128 (≈ 249 µM) | > 128 | > 128 | 128 (≈ 249 µM) | – | –
CO[C@H]1C[C@H]2C=C[C@H]3[C@H]4O[C@]2(/C(C)=C/[C@@H](C)[C@@H]([C@@H](C)O)OC1=O)[C@@H]3[C@H](O)[C@@H](C)[C@H]4OC(=O)c1cccn1C [Example 196] | > 189 | 9.82 | 64 (≈ 121 µM) | > 128 | > 128 | 128 (≈ 242 µM) | – | –
CO[C@H]1CC2C=C[C@H]3[C@H]4O[C@]2(/C(C)=C/[C@@H](C)[C@@H]([C@@H](C)OC(=O)NCC(N)=O)OC1=O)[C@@H]3[C@H](O)[C@@H](C)[C@H]4OC(=O)c1ccc[nH]1 (stereo partly drawn) [Example 16] | – | – | 4 (≈ 6.5 µM) | 128 (≈ 208 µM) | 32 | > 128 | 97.5 | < 0.00975
CO[C@H]1C[C@H]2C=C[C@H]3[C@H]4O[C@]2(/C(C)=C/[C@@H](C)[C@@H](C(C)=O)OC1=O)[C@@H]3C(=O)[C@@H](C)[C@H]4OC(=O)c1ccc[nH]1 [Example 171] | 176 | 6.84 | > 8 | > 128 | > 8 | > 128 | – | –
CO[C@H]1CC2C=C[C@H]3[C@H]4O[C@]2(/C(C)=C/[C@@H](C)[C@@H](C(C)=O)OC1=O)[C@@H]3[C@H](O)[C@@H](C)[C@H]4OC(=O)c1ccc[nH]1 (stereo partly drawn) [Example 177] | 8.76 | < 0.0117 | 0.5 (≈ 0.974 µM) | 8 (≈ 15.6 µM) | 1 | > 128 | – | –
CO[C@H]1CC2C=C[C@H]3[C@H]4O[C@]2(/C(C)=C/[C@@H](C)[C@@H]([C@@H](C)OC(=O)C[n+]2ccccc2)OC1=O)[C@@H]3[C@H](O)[C@@H](C)[C@H]4OC(=O)c1ccc[nH]1 (stereo partly drawn) [Example 71] | 18.9 | < 0.00944 | 0.25 | 8 | 0.25 | > 128 | – | –
CO[C@H]1CC2C=C[C@H]3[C@H]4O[C@]2(/C(C)=C/[C@@H](C)[C@@H]([C@@H](C)O)OC1=O)[C@@H]3[C@H](OC(=O)NS(=O)(=O)c1ccccc1)[C@@H](C)[C@H]4OC(=O)c1ccc[nH]1 (stereo partly drawn) [Example 40, (3R,4S,7S,10aR,11R,12R,13R,14R,14aS,14bS,E)-4-((R)-1-hydroxyethyl)-7-methoxy-1,3,13-trimethyl-6-oxo-14-(((phenylsulfonyl)carbamoyl)oxy)-3,4,6,7,8,8a,10a,11,12,13,14,14a-dodecahydro-11,14b-epoxynaphtho[2,1-e]oxecin-12-yl 1H-pyrrole-2-carboxylate] | > 143 | 1.57 | > 128 | > 128 | > 128 | > 128 | – | –
CC[C@H]1OC(=O)[C@@H](OC)C[C@H]2C=C[C@H]3[C@H]4O[C@]2(/C(C)=C/[C@H]1C)[C@@H]3[C@H](O)C(C)[C@H]4C#N (stereo partly drawn) [Example 189, (3R,4R,7S,8aS,10aR,11R,12S,14R,14aS,14bS,E)-4-ethyl-14-hydroxy-7-methoxy-1,3,13-trimethyl-6-oxo-3,4,6,7,8,8a,10a,11,12,13,14,14a-dodecahydro-11,14b-epoxynaphtho[2,1-e]oxecine-12-carbonitrile] | > 241 | 144 | > 128 | > 128 | > 128 | > 128 | – | –
